Measured values from ChEMBL document CHEMBL6096667, “Design, synthesis and biological evaluation of biaryl amide derivatives as modulators of multi-drug resistance” (Eur J Med Chem, 2025).

Key:
A2780/Taxol [1] = test: Inhibition of cell proliferation of human Paclitaxel-resistant A2780/T cells at 10 uM incubated for 48 hrs in presence of PTX by MTT assay relative to control; format: functional
A2780/Taxol [2] = test: Inhibition of cell proliferation of human Paclitaxel-resistant A2780/T cells incubated for 48 hrs in presence of PTX by MTT assay; format: functional, cell-based
A2780/Taxol [3] = test: Inhibition of cell proliferation of human Paclitaxel-resistant A2780/T cells at 1 uM incubated for 48 hrs in presence of PTX by MTT assay relative to control; format: functional
A2780/Taxol [4] = test: Inhibition of cell proliferation of human Paclitaxel-resistant A2780/T cells at 0.1 uM incubated for 48 hrs in presence of PTX by MTT assay relative to control; format: functional
A2780/Taxol [5] = test: Inhibition of cell proliferation of human Paclitaxel-resistant A2780/T cells at 0.01 uM incubated for 48 hrs in presence of PTX by MTT assay relative to control; format: functional
[6] = Inhibition of cell proliferation of human CDDP-resistant A549 cells by MTT assay; format: functional, cell-based
[7] = Inhibition of cell proliferation of human A2780/CDDP cells by MTT assay; format: functional, cell-based
[8] = Reversal of paclitaxel resistance in human A2780/CDDP cells assessed as reversal fold by measuring ratio of paclitaxel IC50 to paclitaxel IC50 in presence of test compound by MTT assay; format: functional
A2780/Taxol [9] = test: Reversal of paclitaxel resistance in human Paclitaxel-resistant A2780/T cells assessed as reversal fold by measuring ratio of paclitaxel IC50 to paclitaxel IC50 in presence of test compound at 1 uM incubated for 48 hrs by MTT assay; format: functional
A2780/Taxol [10] = test: Reversal of paclitaxel resistance in human Paclitaxel-resistant A2780/T cells by MTT assay; format: functional, cell-based
[11] = Reversal of paclitaxel resistance in human CDDP-resistant A549 cells assessed as reversal fold by measuring ratio of paclitaxel IC50 to paclitaxel IC50 in presence of test compound by MTT assay; format: functional, CDDP-resistant A549 cell
[12] = target: ATP-dependent translocase ABCB1 (Homo sapiens, UniProt P08183); test: Binding affinity to CM5 sensor chip-immobilized human P-gp assessed as dissociation constant by SPR analysis
Sequence of ATP-dependent translocase ABCB1 (P08183 whole entry): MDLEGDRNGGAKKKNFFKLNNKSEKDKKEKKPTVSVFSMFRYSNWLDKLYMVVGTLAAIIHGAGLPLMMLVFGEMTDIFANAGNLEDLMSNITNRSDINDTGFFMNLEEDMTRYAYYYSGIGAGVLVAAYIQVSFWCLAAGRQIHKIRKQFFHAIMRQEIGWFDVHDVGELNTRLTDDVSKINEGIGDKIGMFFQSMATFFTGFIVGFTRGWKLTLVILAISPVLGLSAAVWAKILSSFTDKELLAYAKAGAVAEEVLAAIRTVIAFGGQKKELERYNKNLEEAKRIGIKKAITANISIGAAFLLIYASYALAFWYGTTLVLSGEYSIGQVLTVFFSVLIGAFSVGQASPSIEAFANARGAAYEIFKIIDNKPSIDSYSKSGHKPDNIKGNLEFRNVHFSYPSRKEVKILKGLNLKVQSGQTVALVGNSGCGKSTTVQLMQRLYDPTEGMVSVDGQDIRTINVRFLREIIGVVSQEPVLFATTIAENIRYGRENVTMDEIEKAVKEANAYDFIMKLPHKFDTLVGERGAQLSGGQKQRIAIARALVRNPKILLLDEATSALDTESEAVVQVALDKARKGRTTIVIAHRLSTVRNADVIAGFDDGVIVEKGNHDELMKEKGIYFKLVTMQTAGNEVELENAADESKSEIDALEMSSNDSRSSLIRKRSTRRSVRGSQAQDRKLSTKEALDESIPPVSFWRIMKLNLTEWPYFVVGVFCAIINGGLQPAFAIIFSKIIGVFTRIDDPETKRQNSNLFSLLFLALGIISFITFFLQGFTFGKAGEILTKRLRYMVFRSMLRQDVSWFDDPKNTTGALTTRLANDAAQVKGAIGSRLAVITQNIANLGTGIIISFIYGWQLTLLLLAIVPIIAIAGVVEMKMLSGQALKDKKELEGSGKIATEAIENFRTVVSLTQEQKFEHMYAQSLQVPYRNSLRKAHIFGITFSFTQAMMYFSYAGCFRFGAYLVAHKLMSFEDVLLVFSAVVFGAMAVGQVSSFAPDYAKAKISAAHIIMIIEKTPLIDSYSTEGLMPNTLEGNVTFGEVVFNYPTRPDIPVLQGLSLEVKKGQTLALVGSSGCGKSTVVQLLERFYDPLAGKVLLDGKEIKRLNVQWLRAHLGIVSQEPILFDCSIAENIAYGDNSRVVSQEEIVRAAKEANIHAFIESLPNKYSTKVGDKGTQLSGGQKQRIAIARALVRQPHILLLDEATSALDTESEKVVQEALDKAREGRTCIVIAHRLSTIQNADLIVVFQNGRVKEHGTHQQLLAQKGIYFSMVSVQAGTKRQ

| SMILES | IC50 (A2780/Taxol [2]) | inhibition at 10 µM (A2780/Taxol [1]) | inhibition at 1 µM (A2780/Taxol [3]) | inhibition at 0.1 µM (A2780/Taxol [4]) | inhibition at 0.01 µM (A2780/Taxol [5]) | other results |
| --- | --- | --- | --- | --- | --- | --- |
| COc1cc(C(=O)NCc2ccc(-c3ccccc3)cn2)cc(OC)c1OC | 22.9 µM | 51% | 10% | – | – | – |
| CC(=O)O[C@H]1C(=O)[C@@]2(C)[C@H]([C@H](OC(=O)c3ccccc3)[C@]3(O)C[C@H](OC(=O)[C@H](O)[C@@H](NC(=O)c4ccccc4)c4ccccc4)C(C)=C1C3(C)C)[C@]1(OC(C)=O)CO[C@@H]1C[C@@H]2O [PACLITAXEL] | 14.1 µM | 35% | 9% | 35% | 9% | IC50 [6]: 27.2 µM; IC50 [7]: 55.2 µM |
| COc1ccc(CCN(C)CCCC(C#N)(c2ccc(OC)c(OC)c2)C(C)C)cc1OC (stereo unspecified) | – | 76% | 57% | 47% | 22% | – |
| O=C(Nc1c(F)c(F)c(-c2ccccc2)c(F)c1F)c1cccnc1 | 0.8 µM | – | – | 46% | 25% | – |
| Cn1cc(C(=O)NCc2ccc(-c3cccc(F)c3)cn2)c2ccccc21 | > 50 µM | 33% | 8% | – | – | – |
| Cn1cc(C(=O)NCc2ccc(-c3cccc4ccccc34)cn2)c2ccccc21 | > 50 µM | 83% | 46% | – | – | Ratio IC50 [8]: 6; Ratio IC50 (A2780/Taxol [9]): 138; EC50 (A2780/Taxol [10]): 0.126 µM; Ratio IC50 [11]: 4 |
| Cn1c(C(=O)NCc2ccc(-c3ccccc3)cn2)cc2ccccc21 | > 50 µM | 37% | 11% | – | – | – |
| Cn1cc(C(=O)NCc2ccc(-c3ccc4c(c3)c3ccccc3n4-c3ccccc3)cn2)c2ccccc21 | > 50 µM | 28% | 14% | – | – | – |
| O=C(NCc1ccc(-c2ccccc2)cn1)c1ccc(C(F)(F)F)nc1 | > 50 µM | 31% | 9% | – | – | – |
| Cn1cc(C(=O)NCc2ccc(-c3cnc4ccccc4c3)cn2)c2ccccc21 | > 50 µM | 76% | 46% | – | – | Ratio IC50 (A2780/Taxol [9]): 9 |
| O=C(NCc1ccc(-c2ccccc2)cn1)c1ccc(F)c(F)c1 | 20 µM | 46% | 22% | – | – | – |
| Cn1cc(C(=O)NCc2ccc(-c3ccc(F)cc3)cn2)c2ccccc21 | > 50 µM | 63% | 25% | – | – | – |
| Cn1cc(C(=O)NCc2ccc(-c3cccs3)cn2)c2ccccc21 | > 50 µM | 80% | 6% | – | – | Ratio IC50 (A2780/Taxol [9]): 47 |
| O=C(NCc1ccc(-c2ccccc2)cn1)c1c(F)c(F)c(F)c(F)c1F | > 50 µM | 39% | 13% | – | – | – |
| CCCCc1ccc(-c2ccc(CNC(=O)c3cn(C)c4ccccc34)nc2)cc1 | > 50 µM | 52% | 37% | – | – | – |
| Cn1cc(C(=O)NCc2ccc(-c3ccco3)cn2)c2ccccc21 | > 50 µM | 32% | 20% | – | – | – |
| COc1ccc(-c2ccc(CNC(=O)c3cn(C)c4ccccc34)nc2)c(OC)c1 | > 50 µM | 80% | 36% | – | – | Ratio IC50 (A2780/Taxol [9]): 38 |
| O=C(Nc1ccc(-c2ccccc2)c2nonc12)c1cccnc1 | 3.09 µM | – | – | 33% | 14% | – |
| O=C(Nc1ccc(-c2ccccc2)c2ccccc12)c1cccnc1 | 19 µM | – | – | 35% | 31% | – |
| COc1ccc(-c2ccc(CNC(=O)c3cn(C)c4ccccc34)nc2)cc1F | > 50 µM | 71% | 40% | – | – | Ratio IC50 (A2780/Taxol [9]): 78 |
| Cn1cc(C(=O)NCc2ccc(-c3ccc(OCc4ccccc4)cc3)cn2)c2ccccc21 | > 50 µM | 78% | 41% | – | – | Ratio IC50 (A2780/Taxol [9]): 54 |

More lines, main results first:

| IC50 (A2780/Taxol [2]) | SMILES | inhibition at 10 µM (A2780/Taxol [1]) | inhibition at 1 µM (A2780/Taxol [3]) | inhibition at 0.1 µM (A2780/Taxol [4]) | inhibition at 0.01 µM (A2780/Taxol [5]) | other results |
| --- | --- | --- | --- | --- | --- | --- |
| > 50 µM | Cn1cccc1C(=O)NCc1ccc(-c2ccccc2)cn1 | 30% | 10% | – | – | – |
| 0.78 µM | O=C(Nc1ccc(-c2ccccc2)c(F)c1F)c1cccnc1 | – | – | 46% | 27% | – |
| 3.54 µM | O=C(Nc1ccc(-c2ccccc2)cc1OC(F)(F)F)c1cccnc1 | – | – | 42% | 31% | – |
| 12.6 µM | O=C(Nc1ccc(-c2ccccc2)cc1)c1cccnc1 | – | – | 37% | 29% | – |
| > 50 µM | O=C(Cc1cccnc1)Nc1ccc(-c2ccccc2)cn1 | 34% | 39% | – | – | – |
| > 50 µM | Cc1ccc(C(=O)NCc2ccc(-c3ccccc3)cn2)cn1 | 35% | 12% | – | – | – |
| 0.32 µM | O=C(Nc1ncc(-c2ccccc2)cc1F)c1cccnc1 | – | – | 50% | 11% | – |
| 0.08 µM | N#Cc1cc(-c2ccccc2)cnc1NC(=O)c1cccnc1 | – | – | 59% | 35% | – |
| 0.88 µM | O=C(Nc1ccc(-c2ccccc2)cn1)c1cccnc1 | – | – | 55% | 28% | – |
| 18.7 µM | O=S(=O)(Nc1ccc(-c2ccccc2)cn1)c1cccnc1 | 37% | 7% | – | – | – |
| 30.5 µM | O=C(NCc1ccc(-c2ccccc2)cn1)c1cccnc1 | 65% | 32% | – | – | – |
| 0.11 µM | O=C(Nc1ncc(-c2ccccc2)cn1)c1cccnc1 | – | – | 49% | 34% | – |
| 2.11 µM | O=C(Nc1ncc(-c2ccccc2)cc1O)c1cccnc1 | – | – | 38% | 11% | – |
| 33.2 µM | O=C(Nc1ccc(-c2ccccc2)c2cccnc12)c1cccnc1 | – | – | 39% | 6% | – |
| 22.1 µM | O=C(/C=C/c1cccnc1)NCc1ccc(-c2ccccc2)cn1 | 38% | 33% | – | – | – |
| > 50 µM | O=C(Cc1cccnc1)NCc1ccc(-c2ccccc2)cn1 | 42% | 33% | – | – | – |
| 10.1 µM | O=C(Nc1nc(-c2ccccc2)co1)c1cccnc1 | – | – | 30% | 11% | – |
| > 50 µM | O=C(Nc1cccnc1)Nc1ccc(-c2ccccc2)cn1 | 30% | 10% | – | – | – |
| 32.7 µM | O=C(NCc1ccc(-c2ccccc2)cn1)c1cncnc1 | 61% | 24% | – | – | – |
| > 50 µM | O=C(NCc1ccc(-c2ccccc2)cn1)c1ccc(Br)nc1 | 37% | 12% | – | – | – |
| 11.2 µM | O=C(Nc1ccc(-c2ccccc2)c([N+](=O)[O-])c1)c1cccnc1 | – | – | 37% | 25% | – |
| > 50 µM | Cn1cc(C(=O)NCc2ccc(-c3ccccc3)cn2)c2ccccc21 | 81% | 30% | – | – | Ratio IC50 [8]: 5; Ratio IC50 (A2780/Taxol [9]): 18; Kd [12]: 1.66 µM; Ratio IC50 [11]: 3 |
| 18.3 µM | O=C(NCc1ccc(-c2ccccc2)cn1)c1ccc2cccnc2c1 | 67% | 31% | – | – | – |
| 13.6 µM | O=C(Nc1ccc(-c2ccccc2)nc1)c1cccnc1 | – | – | 33% | 9% | – |
| 0.027 µM | O=C(Nc1ccc(-c2ccccc2)cc1[N+](=O)[O-])c1cccnc1 | – | – | 74% | 48% | – |
